Experimental data taken from US10519177B2, “Heterocyclic compounds and uses thereof” (Plexxikon Inc., priority 2013, dated 2019).
Like-named read-outs stand apart in the source and are kept apart here.

Key:
BRD4-BD1 (44-164) = BRD4-BD1 (44-164) (Homo sapiens (Human), UniProt O60885); assay: Alphascreen binding assay BRD4-BD1; settings: BRD4(1) H4; read-out: Biochemical activity (IC50 μM) BRD4(1) H4
Protocol: Binding of compounds of formula (I) with bromodomain 2, 3 4 was assessed using Alphascreen binding assay. The inhibition of the interaction between bromodomain and its acetylated target protein (Filippakopoulos P et al. 2012) was measured quantitatively using recombinant BRD proteins, an acetylated Histone 4 peptide and AlphaScreen™ technology. In absence of inhibition the BRD protein bound to AlphaScreen™ nickel chelate acceptor beads can interact with the acetylated Histone 4 peptide which is immobilized by the AlphaScreen™ Streptavidin coated beads. This interaction brings donor and acceptor beads in proximity. The close proximity allows the singlet oxygen produced by laser excitation of the donor beads to reach the acceptor beads and generate a luminescence signal.
Recombinant human bromodomains containing the N-terminal bromodomain (BRD2-BD1 (71-194), BRD3-BD1 (24-144) and BRD4-BD1 (44-164)) or dual bromodomains (BRD4-BD12 (1-477), BRD4-BD12 (1-472)) were prepared and purified as described in protein expression and purification session. The peptide is human Histone H41-21K5AcK8AcK12AcK16Ac-Biotin (Anaspec CA, USA).
Protocol for BRD2, BRD3 and BRD4 assay: All components are prepared in buffer composed of 50 mM HEPES pH 7.5, 100 mM NaCl, 0.01% bovine serum albumin (“BSA”), 0.01% Triton X-100, 2 mM dithiothreitol (“DTT”). 7 μL of Bromodomain protein and 7 μL of peptide are added to wells containing 1 μL of various concentrations of test compounds of formula (I) or DMSO vehicle in an Alphaplate (PerkinElmer GA, USA) and incubated for 1 hour at room temperature. 4 μL donor and acceptor bead mixture is then added with final concentrations of 7.5 μg/ml. 30 minutes after bead addition, Alpha signal is read on the Envision spectrometer (λEx 680 nm, λEm 520-620 nm). Final concentrations of bromodomain proteins and peptide are as shown below.
All data was normalized to the mean of 16 high and 16 low control wells on each plate. A four parameter curve fit of the following formula was then applied: Y=a+(b−a)/(1+(x/c)^d) Where ‘a’ is the minimum, ‘b’ is the maximum, ‘c’ is the pIC50 and ‘d’ is the Hill slope. Protein Expression and Purification
Recombinant human bromodomains containing the N-terminal bromodomain (BRD2-BD1 (71-194), BRD3-BD1 (24-144) and BRD4-BD1 (44-164)) or dual bromodomains (BRD4-BD12 (1-477), BRD4-BD12 (1-472)) were expressed in E. coli cells (in a modified pET vector) with an N-terminal six-His tag and purified using a combination of both IMAC (Ni-affinity) and size exclusion chromatography steps.
Recombinant BRD proteins were expressed using the E. coli strain BL21-CodonPlus (DE3) (Agilent Technologies CA, USA). Cells were grown in Terrific Broth (TB) media to an OD600 of 1.2 at 37° C. at which temperature was reduced to 25° C., protein was induced with 1.0 mM ispropyl-β-D-thiogalactopyranoside (“IPTG”) for 12-18 hours and harvested by centrifugation at 8000×g for 20 minutes. Cells were re-suspended in 0.1M K2PO4 pH 8.0, 250 mM NaCl, 10% Glycerol, 0.75% NP-40, 25 mM Imidazole, 5 mM beta-mercaptoethanol (“BME”) with 0.2 mg/ml Lysosyme, 2.0 mM phenylmethanesulfonyl fluoride (“PMSF”), 25 μg/ml DNAse I, incubated on ice for 30 minutes and lyzed with a cell disruptor (MicroFluidics MA, USA). The lysate was clarified by centrifugation at 20,000×g for 2 hours. The protein was captured with Ni-NTA resin (Life Technologies, USA). Contaminating proteins were washed off with 25 mM Tris-HCl pH 8.3, 250 mM NaCl, 12% Glycerol and 50 mM Imidazole. Following 3× wash steps, protein was eluted step wise using a 50 mM HEPES pH 7.5, 500 mM NaCl and 400 mM Imidazole. The protein was further purified using Gel Filtration column 26/600 Superdex 200 (GE Biosciences NJ, USA) in 50 mM HEPES pH 7.5, 250 mM NaCl. The protein was aliquoted and flash-frozen in liquid Nitrogen.

bromodomain = assay: at least one of the bromodomain cell assays of Example 57; type: cell-based; settings: at least one of the bromodomain cell assays described in Example 57; read-out: IC50 in at least one of the bromodomain cell assays
MV-4-11 cells = assay: Oncology cell growth assay MV-4-11 (CellTiter Glo); type: cell-based; settings: Homo sapiens, MV4-11, 72 h, read-out: Cell activity (IC50 μM) MV-4-11 3d-Growth
How it was run: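 MV-4-11 AML cells (MLL-AF4), 3000 per well, exposed to 8-point 1:3 compound titration from 10 μM top concentration (0.2% DMSO) for 72 h. Viability by CellTiter Glo luminescence, normalized to DMSO controls; pIC50 from four-parameter curve fit.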

BRD4-BD12 (1-477) = BRD4-BD12 (1-477) (Homo sapiens (Human), UniProt O60885); assay: Alphascreen binding assay BRD4-BD12; settings: BRD4(1 2) H4; read-out: Biochemical activity (IC50 μM) BRD4(1 2) H4
How it was run: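 First, compound was preincubated 1 h at room temperature with the His-tagged BRD4 protein (BD1 44-164 or tandem BD12 1-477) and acetylated H4 peptide. Next, donor and acceptor beads were added at 7.5 μg/ml final. After 30 min, AlphaScreen emission was recorded.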

Cc1noc(C)c1-c1cnc2c(-c3cnn(C)c3)cn(C(C)c3ccccc3)c2c1 (stereo not drawn) [P-0161, 3,5-dimethyl-4-[3-(1-methylpyrazol-4-yl)-1-(1-phenylethyl)pyrrolo[3,2-b]pyridin-6-yl]isoxazole] was tested, and the IC50 (BRD4-BD1 (44-164)) was less than 1 µM.

In the case of C=CCn1cc(-c2cn(Cc3ccccc3)c3cc(-c4c(C)noc4C)cnc23)cn1 [P-0160, 4-[3-(1-allylpyrazol-4-yl)-1-benzyl-pyrrolo[3,2-b]pyridin-6-yl]-3,5-dimethyl-isoxazole], the IC50 (BRD4-BD1 (44-164)) is reported as less than 1 µM.

Molecule Cc1noc(C)c1-c1cnc2c(-c3cnn(C)c3)cn(C(CO)c3ccccc3)c2c1 (stereo not drawn) [P-0192, 2-[6-(3,5-dimethylisoxazol-4-yl)-3-(1-methylpyrazol-4-yl)pyrrolo[3,2-b]pyridin-1-yl]-2-phenyl-ethanol] has an IC50 (BRD4-BD1 (44-164)) of less than 1 µM.

Molecule Cc1noc(C)c1-c1cnc2c(-c3cnn(C)c3)cn([C@@H](C)c3ccccc3)c2c1 [P-0222, 3,5-dimethyl-4-[3-(1-methylpyrazol-4-yl)-1-[(1S)-1-phenylethyl]pyrrolo[3,2-b]pyridin-6-yl]isoxazole] has an IC50 (BRD4-BD1 (44-164)) of less than 1 µM.

Work on Cc1noc(C)c1-c1cnc2[nH]cc(CC3CCC(F)(F)CC3)c2c1 [P-0034, 4-[3-[(4,4-difluoro-cyclohexyl)methyl]-1H-pyrrolo[2,3-b]pyridin-5-yl]-3,5-dimethyl-isoxazole] yielded an IC50 (BRD4-BD1 (44-164)) of less than 1 µM.

Work on Cc1noc(C)c1-c1cnc2c(-c3cnn(C)c3)cn(Cc3c(F)cccc3F)c2c1 [P-0173, 4-[1-[(2,6-difluorophenyl)methyl]-3-(1-methylpyrazol-4-yl)pyrrolo[3,2-b]pyridin-6-yl]-3,5-dimethyl-isoxazole] yielded an IC50 (BRD4-BD1 (44-164)) of less than 1 µM.

Molecule CCCS(=O)(=O)n1cc(-c2cnn(CC(F)(F)F)c2)c2ncc(-c3c(C)noc3C)cc21 [P-0150, 3,5-dimethyl-4-[1-propylsulfonyl-3-[1-(2,2,2-trifluoroethyl)pyrazol-4-yl]pyrrolo[3,2-b]pyridin-6-yl]isoxazole] has an IC50 (BRD4-BD1 (44-164)) of less than 1 µM.

Molecule Cc1noc(C)c1-c1cnc2[nH]cc(Sc3cccc(F)c3)c2c1 [P-0141, 4-[3-(3-fluorophenyl)sulfanyl-1H-pyrrolo[2,3-b]pyridin-5-yl]-3,5-dimethyl-isoxazole] has an IC50 (BRD4-BD1 (44-164)) of less than 1 µM.

Work on Cc1noc(C)c1-c1cnc2[nH]cc(S(=O)(=O)c3cccc(F)c3)c2c1 [P-0143, 4-[3-(3-fluorophenyl)sulfonyl-1H-pyrrolo[2,3-b]pyridin-5-yl]-3,5-dimethyl-isoxazole] yielded an IC50 (BRD4-BD1 (44-164)) of less than 1 µM.

Work on CNC(=O)Nc1ccc(-c2cn(CC3(F)CCCCC3)c3cc(-c4c(C)noc4C)cnc23)cc1 [P-0522, 1-[4-[6-(3,5-dimethylisoxazol-4-yl)-1-[(1-fluorocyclohexyl)methyl]pyrrolo[3,2-b]pyridin-3-yl]phenyl]-3-methyl-urea] yielded an IC50 (bromodomain) of less than 10000 nM, an IC50 (MV-4-11 cells; MV-4-11, 3d growth) of less than 1 µM and an IC50 (BRD4-BD12 (1-477)) of less than 1 µM.

Cc1noc(C)c1-c1cnc2c(-c3ccc([N+](=O)[O-])nc3)cn(CC3CCC(F)(F)CC3)c2c1 [P-0599, 4-[1-[(4,4-difluorocyclohexyl)methyl]-3-(6-nitro-3-pyridyl)pyrrolo[3,2-b]pyridin-6-yl]-3,5-dimethyl-isoxazole] was tested, and the IC50 (bromodomain) was less than 10000 nM, the IC50 (MV-4-11 cells; MV-4-11, 3d growth) was less than 1 µM and the IC50 (BRD4-BD12 (1-477)) was less than 1 µM.

[2H]C([2H])(C1CC(F)(F)C1)n1cc(-c2cn[nH]c2)c2ncc(-c3c(C)noc3C)cc21 [P-0255, 4-[1-[dideuterio-(3,3-difluorocyclobutyl)methyl]-3-(1H-pyrazol-4-yl)pyrrolo[3,2-b]pyridin-6-yl]-3,5-dimethyl-isoxazole] showed an IC50 (bromodomain) of less than 10000 nM, an IC50 (MV-4-11 cells) of less than 1 µM and an IC50 (BRD4-BD12 (1-477)) of less than 1 µM.

Work on Cc1noc(C)c1-c1cnc2c(-c3ccc(CC(=O)O)cc3)cn(CC3CCCC3)c2c1 [P-0591, 2-[4-[1-(cyclopentylmethyl)-6-(3,5-dimethylisoxazol-4-yl)pyrrolo[3,2-b]pyridin-3-yl]phenyl]acetic acid] yielded an IC50 (bromodomain) of less than 10000 nM, an IC50 (MV-4-11 cells; MV-4-11, 3d growth) of less than 1 µM and an IC50 (BRD4-BD12 (1-477)) of less than 1 µM.

Cc1nnn(C)c1-c1cnc2c(-c3ccc(C(=O)O)cc3)cn(CC3CCC(F)(F)CC3)c2c1 [P-0377, 4-[1-[(4,4-difluorocyclohexyl)methyl]-6-(3,5-dimethyltriazol-4-yl)pyrrolo[3,2-b]pyridin-3-yl]benzoic acid] gave an IC50 (bromodomain) of less than 10000 nM, an IC50 (MV-4-11 cells) of less than 1 µM and an IC50 (BRD4-BD12 (1-477)) of less than 1 µM.

Cc1noc(C)c1-c1cnc2c(-c3ccc(C(=O)OC(C)C)cc3)cn(CC3CCCCC3)c2c1 [P-0708, isopropyl 4-[1-(cyclohexylmethyl)-6-(3,5-dimethylisoxazol-4-yl)pyrrolo[3,2-b]pyridin-3-yl]benzoate] gave an IC50 (bromodomain) of less than 10000 nM, an IC50 (MV-4-11 cells; MV-4-11, 3d growth) of less than 1 µM and an IC50 (BRD4-BD12 (1-477)) of less than 1 µM.

Work on [2H]C([2H])(C1CCC(F)(F)CC1)n1cc(-c2cnn(C)c2C)c2ncc(-c3c(C)noc3C)cc21 [P-0338, 4-[1-[dideuterio-(4,4-difluorocyclohexyl)methyl]-3-(1,5-dimethylpyrazol-4-yl)pyrrolo[3,2-b]pyridin-6-yl]-3,5-dimethyl-isoxazole] yielded an IC50 (bromodomain) of less than 10000 nM, an IC50 (MV-4-11 cells) of less than 1 µM and an IC50 (BRD4-BD12 (1-477)) of less than 1 µM.

Cc1noc(C)c1-c1cnc2c(c1)c(CC1CCC(F)(F)CC1)cn2-c1ccc(C(=O)O)cn1 [P-0430, 6-[3-[(4,4-difluorocyclohexyl)methyl]-5-(3,5-dimethylisoxazol-4-yl)pyrrolo[2,3-b]pyridin-1-yl]pyridine-3-carboxylic acid] showed an IC50 (bromodomain) of less than 10000 nM, an IC50 (MV-4-11 cells; MV-4-11, 3d growth) of less than 1 µM and an IC50 (BRD4-BD12 (1-477)) of less than 1 µM.

With [2H]C([2H])(C1CC(F)(F)C1)n1cc(-c2cnn(CCF)c2)c2ncc(-c3c(C)noc3C)cc21 [P-0258, 4-[1-[dideuterio-(3,3-difluorocyclobutyl)methyl]-3-[1-(2-fluoroethyl)pyrazol-4-yl]pyrrolo[3,2-b]pyridin-6-yl]-3,5-dimethyl-isoxazole] the IC50 (bromodomain) was less than 10000 nM, the IC50 (MV-4-11 cells) was less than 1 µM and the IC50 (BRD4-BD12 (1-477)) was less than 1 µM.

Cc1noc(C)c1-c1cnc2c(-c3cnn(CC(F)(F)F)c3)cn([C@H](C)c3ccccn3)c2c1 [P-0513, 3,5-dimethyl-4-[1-[(1R)-1-(2-pyridyl)ethyl]-3-[1-(2,2,2-trifluoroethyl)pyrazol-4-yl]pyrrolo[3,2-b]pyridin-6-yl]isoxazole] gave an IC50 (bromodomain) of less than 10000 nM, an IC50 (MV-4-11 cells; MV-4-11, 3d growth) of less than 1 µM and an IC50 (BRD4-BD12 (1-477)) of less than 1 µM.

Molecule Cc1noc(C)c1-c1cnc2c(c1)c(CC1CCC(F)(F)CC1)cn2-c1ncc(C(=O)O)cn1 [P-0443, 2-[3-[(4,4-difluorocyclohexyl)methyl]-5-(3,5-dimethylisoxazol-4-yl)pyrrolo[2,3-b]pyridin-1-yl]pyrimidine-5-carboxylic acid] has an IC50 (bromodomain) of less than 10000 nM, an IC50 (MV-4-11 cells; MV-4-11, 3d growth) of 1 to 10 µM and an IC50 (BRD4-BD12 (1-477)) of less than 1 µM.
